Biological target: T1, Bst DNA polymerase (Geobacillus stearothermophilus, UniProt P52026)
T1 sequence (P52026 1-876): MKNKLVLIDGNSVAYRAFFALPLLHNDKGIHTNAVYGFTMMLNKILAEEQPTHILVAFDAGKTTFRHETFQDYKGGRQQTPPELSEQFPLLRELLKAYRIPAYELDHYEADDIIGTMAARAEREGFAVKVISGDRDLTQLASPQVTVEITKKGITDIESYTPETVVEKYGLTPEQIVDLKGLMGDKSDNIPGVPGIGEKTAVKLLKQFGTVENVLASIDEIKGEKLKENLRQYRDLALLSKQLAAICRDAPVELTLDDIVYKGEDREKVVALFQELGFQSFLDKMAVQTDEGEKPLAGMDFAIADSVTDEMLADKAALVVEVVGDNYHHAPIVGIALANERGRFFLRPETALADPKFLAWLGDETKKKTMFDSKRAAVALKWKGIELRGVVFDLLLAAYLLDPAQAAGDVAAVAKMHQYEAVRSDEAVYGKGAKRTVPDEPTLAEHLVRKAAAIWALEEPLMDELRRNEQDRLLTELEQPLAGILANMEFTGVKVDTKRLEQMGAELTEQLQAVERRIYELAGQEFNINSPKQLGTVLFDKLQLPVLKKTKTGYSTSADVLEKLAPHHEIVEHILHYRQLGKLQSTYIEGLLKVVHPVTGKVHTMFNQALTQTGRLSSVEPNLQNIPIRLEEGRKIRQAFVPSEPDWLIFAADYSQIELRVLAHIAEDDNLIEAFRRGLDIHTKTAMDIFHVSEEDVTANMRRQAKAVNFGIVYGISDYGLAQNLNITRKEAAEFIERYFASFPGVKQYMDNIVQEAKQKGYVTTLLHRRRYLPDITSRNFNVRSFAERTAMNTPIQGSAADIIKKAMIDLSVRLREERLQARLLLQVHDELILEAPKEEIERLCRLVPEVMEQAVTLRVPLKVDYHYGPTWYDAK
Assay: Synthesis of single-stranded 56-mer by primer extension and lambda exonuclease digestion
Type: biochemical
Conditions: substituted for dATP and dTTP; for full-length 56-mer product: 65° C., 30 minutes
Procedure: Unstructured single-stranded UNA was generated by incorporating 2-aminoadenosine and 2-thiothymidine nucleotides using a 14-mer primer and 56-mer template (5′-phosphorylated) and Bst DNA polymerase followed by digestion of the DNA template with lambda exonuclease (FIG. 6). Ten microliter extension reactions were performed in 0.65 ml pre-siliconized microfuge tubes containing the following components: 20 mM Tris-Cl (pH 8.8 @ 25° C.), 10 mM KCl, 10 mM (NH4)2SO4, 2 mM MgSO4, 0.1% Triton-X100, 1.0 microM primer/template, 500 microM dGTP, 500 microM dATP (or 2-amino-2′-deoxyadenosine-5′-triphosphate), 500 microM dTTP (or 2-thiothymidine-5′-triphosphate), 200 microM ^32P--CTP and 0.8 units/microL Bst DNA polymerase. The reactions were incubated at 65° C. for 30 minutes, quenched with 5 mM EDTA, ethanol precipitated, dried and resuspended in 10 microL of 10 mM Tris-Cl pH 8.0. The 56-mer template was digested by incubating the resuspended samples with 10 units of lambda exonuclease (Strandase Kit™, (Novagen; Madison, Wis.)) for 30 minutes at 37° C. The reactions were quenched with 5 mM EDTA, ethanol precipitated, dried and resuspended in 10 microL of 10 mM Tris-Cl pH 8.0. The samples were then electrophoresed on 10% denaturing (7M urea) polyacrylamide gels and visualized using phosphorimaging methods.

SMILES	premature termination products	full-length 56-mer product
Cc1cn([C@H]2C[C@H](O)[C@@H](COP(=O)(O)OP(=O)(O)OP(=O)(O)O)O2)c(=S)[nH]c1=O [2-thiothymidine-5′-triphosphate]	little if any	full-length 56-mer product is generated
Nc1nc(N)c2ncn([C@H]3C[C@H](O)[C@@H](COP(=O)(O)OP(=O)(O)OP(=O)(O)O)O3)c2n1 [2-amino-2′-deoxyadenosine-5′-triphosphate]	little if any	full-length 56-mer product is generated

Source: patent US20040086880A1, “Method of producing nucleic acid molecules with reduced secondary structure” (priority 1999, published 2004)
